Consider six molecules from ChEMBL document CHEMBL1138765, “Design, synthesis, and biological evaluation of biotin conjugates of 2-cyano-3,12-dioxooleana-1,9(11)-dien-28-oic acid for the isolation of the protein targets” (J Med Chem, 2004).

The structures appear in SMILES notation.

This assay deals with MCF7. Kind of assay: Inhibitory concentration against proliferation of MCF-7 (ER Positive) breast cancer cells. The conditions noted are these: Homo sapiens. Type of assay: functional, cell-based.

With `COC(=O)[C@]12CCC(C)(C)CC1C1C(=O)C=C3[C@@]4(C)C=C(C#N)C(=O)[C@@](C)(COC(=O)CCCCCNC(=O)CCCC[C@@H]5SC[C@@H]6NC(=O)N[C@@H]65)[C@@H]4CC[C@@]3(C)[C@]1(C)CC2` (stereo partly specified), the midpoint of inhibition, the IC50, lay at 550 nM. Under `COC(=O)[C@]12CCC(C)(C)CC1C1C(=O)C=C3[C@@]4(C)C=C(C#N)C(=O)[C@@](C)(CO)[C@@H]4CC[C@@]3(C)[C@]1(C)CC2` (stereo partly specified) stands 80 nM.

As for `CC1(C)CC[C@]2(C(=O)NCCCCCCNC(=O)CCCCC3SC[C@@H]4NC(=O)N[C@H]34)CC[C@]3(C)C(C(=O)C=C4[C@@]5(C)C=C(C#N)C(=O)C(C)(C)[C@@H]5CC[C@]43C)C2C1` (stereo partly specified), the IC50 (commonly the point on the concentration scale where inhibition reaches its midpoint) worked out at 3310 nM.

Turning to `CC1(C)CC[C@]2(C(=O)NCCCC(=O)NCCCCCCNC(=O)CCCCC3SC[C@@H]4NC(=O)N[C@H]34)CC[C@]3(C)C(C(=O)C=C4[C@@]5(C)C=C(C#N)C(=O)C(C)(C)[C@@H]5CC[C@]43C)C2C1` (stereo partly specified), the IC50 stood at 5260 nM. Under `COC(=O)[C@]12CCC(C)(C)C[C@H]1[C@H]1C(=O)C=C3[C@@]4(C)C=C(C#N)C(=O)C(C)(C)[C@@H]4CC[C@@]3(C)[C@]1(C)CC2` [BARDOXOLONE METHYL] stands 50 nM; under `CC1(C)CC[C@]2(C(=O)O)CC[C@]3(C)[C@H](C(=O)C=C4[C@@]5(C)C=C(C#N)C(=O)C(C)(C)[C@@H]5CC[C@]43C)[C@@H]2C1` [BARDOXOLONE], 160 nM.
